Experimental data from ChEMBL document CHEMBL5352410, “Discovery of novel selenium-containing azole derivatives as antifungal agents by exploiting the hydrophobic cleft of CYP51” (Eur J Med Chem, 2022).
≈ marks a conversion by molar mass, not a printed value.

Legend:
Pichia kudriavzevii = test: Antifungal activity against Pichia kudriavzevii by CLSI based broth microdilution method; assay type: functional
Candida albicans [1] = test: Antibiofilm activity against Candida albicans CPCC400616 assessed as sessile minimum inhibitory concentration measured after 1.5 hrs by XTT assay; assay type: functional
[2] = molecular target: T1, Lanosterol 14-alpha demethylase (Candida albicans (strain SC5314 / ATCC MYA-2876) (Yeast), UniProt P10613); test: Inhibition of CYP51 of Candida albicans ATCC SC5314 assessed as increase in lanosterol level at 8 ug/ml incubated for 16 hrs by GC-MS analysis (reference value: 1.7 %); set-up: scale not given: the % may be the effect or the level left; conditions: at 8 µg/mL
T1 sequence (P10613 whole entry): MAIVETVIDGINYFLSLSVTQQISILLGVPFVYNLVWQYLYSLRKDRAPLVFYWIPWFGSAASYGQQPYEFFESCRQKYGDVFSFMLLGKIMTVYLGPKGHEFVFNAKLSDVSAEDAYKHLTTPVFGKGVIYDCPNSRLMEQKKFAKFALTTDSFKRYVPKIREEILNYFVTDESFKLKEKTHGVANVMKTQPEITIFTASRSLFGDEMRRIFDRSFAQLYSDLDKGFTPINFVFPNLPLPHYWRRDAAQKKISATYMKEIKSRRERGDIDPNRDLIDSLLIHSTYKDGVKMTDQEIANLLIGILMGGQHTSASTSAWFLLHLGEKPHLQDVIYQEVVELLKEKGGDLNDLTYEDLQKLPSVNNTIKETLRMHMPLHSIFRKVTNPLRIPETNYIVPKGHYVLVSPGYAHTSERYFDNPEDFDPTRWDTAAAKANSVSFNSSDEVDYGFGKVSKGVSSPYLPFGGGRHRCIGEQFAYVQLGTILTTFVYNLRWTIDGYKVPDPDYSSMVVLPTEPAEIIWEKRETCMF

Candida albicans [3] = test: Antifungal activity against FCZ-resistant Candida albicans 17# by CLSI based broth microdilution method; assay type: functional
Nakaseomyces glabratus = test: Antifungal activity against Candida glabrata by CLSI based broth microdilution method; assay type: functional
[4] = molecular target: T1, Lanosterol 14-alpha demethylase; test: Inhibition of CYP51 of Candida albicans ATCC SC5314 assessed as increase in obtusifoliol level at 8 ug/ml incubated for 16 hrs by GC-MS analysis (reference value: 0 %); set-up: scale not given: the % may be the effect or the level left; conditions: at 8 µg/mL
Candida albicans [5] = test: Antifungal activity against FCZ-resistant Candida albicans 901 by CLSI based broth microdilution method; assay type: functional
Aspergillus fumigatus = test: Antifungal activity against Aspergillus fumigatus by CLSI based broth microdilution method; assay type: functional
[6] = molecular target: T1, Lanosterol 14-alpha demethylase; test: Inhibition of CYP51 of Candida albicans ATCC SC5314 assessed as decrease in ergosterol level by measuring residual activity at 4 ug/ml incubated for 16 hrs by GC-MS analysis (reference value: 98.3 %); conditions: at 4 µg/mL
Candida albicans [7] = test: Antifungal activity against Candida albicans sc5314 by CLSI based broth microdilution method; assay type: functional
[8] = molecular target: T1, Lanosterol 14-alpha demethylase; test: Inhibition of CYP51 of Candida albicans ATCC SC5314 assessed as decrease in ergosterol level by measuring residual activity at 2 ug/ml incubated for 16 hrs by GC-MS analysis (reference value: 98.3 %); conditions: at 2 µg/mL
[9] = molecular target: T1, Lanosterol 14-alpha demethylase; test: Inhibition of CYP51 of Candida albicans ATCC SC5314 assessed as increase in eburicol level at 2 ug/ml incubated for 16 hrs by GC-MS analysis (reference value: 0 %); set-up: scale not given: the % may be the effect or the level left; conditions: at 2 µg/mL
[10] = molecular target: T1, Lanosterol 14-alpha demethylase; test: Inhibition of CYP51 of Candida albicans ATCC SC5314 assessed as decrease in ergosterol level by measuring residual activity at 8 ug/ml incubated for 16 hrs by GC-MS analysis (reference value: 98.3 %); conditions: at 8 µg/mL
Candida albicans [11] = test: Antifungal activity against FCZ-resistant Candida albicans 632 by CLSI based broth microdilution method; assay type: functional
Candida albicans [12] = test: Antifungal activity against FCZ-resistant Candida albicans 904 by CLSI based broth microdilution method; assay type: functional
Candida albicans [13] = test: Antibiofilm activity against Candida albicans SC5314 assessed as sessile minimum inhibitory concentration measured after 24 hrs by XTT assay; assay type: functional
[14] = molecular target: T1, Lanosterol 14-alpha demethylase; test: Inhibition of CYP51 of Candida albicans ATCC SC5314 assessed as increase in eburicol level at 1 ug/ml incubated for 16 hrs by GC-MS analysis (reference value: 0 %); set-up: scale not given: the % may be the effect or the level left; conditions: at 1 µg/mL
[15] = molecular target: T1, Lanosterol 14-alpha demethylase; test: Inhibition of CYP51 of Candida albicans ATCC SC5314 assessed as increase in lanosterol level at 1 ug/ml incubated for 16 hrs by GC-MS analysis (reference value: 1.7 %); set-up: scale not given: the % may be the effect or the level left; conditions: at 1 µg/mL
Candida albicans [16] = test: Antibiofilm activity against Candida albicans SC5314 assessed as sessile minimum inhibitory concentration measured after 1.5 hrs by XTT assay; assay type: functional
[17] = molecular target: T1, Lanosterol 14-alpha demethylase; test: Inhibition of CYP51 of Candida albicans ATCC SC5314 assessed as increase in eburicol level at 4 ug/ml incubated for 16 hrs by GC-MS analysis (reference value: 0 %); set-up: scale not given: the % may be the effect or the level left; conditions: at 4 µg/mL
[18] = molecular target: T1, Lanosterol 14-alpha demethylase; test: Inhibition of CYP51 of Candida albicans ATCC SC5314 assessed as increase in obtusifoliol level at 2 ug/ml incubated for 16 hrs by GC-MS analysis (reference value: 0 %); set-up: scale not given: the % may be the effect or the level left; conditions: at 2 µg/mL
[19] = molecular target: T1, Lanosterol 14-alpha demethylase; test: Inhibition of CYP51 of Candida albicans ATCC SC5314 assessed as increase in obtusifoliol level at 1 ug/ml incubated for 16 hrs by GC-MS analysis (reference value: 0 %); set-up: scale not given: the % may be the effect or the level left; conditions: at 1 µg/mL
Candida albicans [20] = test: Antifungal activity against Candida albicans by CLSI based broth microdilution method; assay type: functional
Cryptococcus neoformans = test: Antifungal activity against Cryptococcus neoformans by CLSI based broth microdilution method; assay type: functional
[21] = molecular target: T1, Lanosterol 14-alpha demethylase; test: Inhibition of CYP51 of Candida albicans ATCC SC5314 assessed as increase in obtusifoliol level at 4 ug/ml incubated for 16 hrs by GC-MS analysis (reference value: 0 %); set-up: scale not given: the % may be the effect or the level left; conditions: at 4 µg/mL
[22] = molecular target: T1, Lanosterol 14-alpha demethylase; test: Inhibition of CYP51 of Candida albicans ATCC SC5314 assessed as increase in lanosterol level at 4 ug/ml incubated for 16 hrs by GC-MS analysis (reference value: 1.7 %); set-up: scale not given: the % may be the effect or the level left; conditions: at 4 µg/mL
Candida albicans [23] = test: Antibiofilm activity against Candida albicans CPCC400616 assessed as sessile minimum inhibitory concentration measured after 3 hrs by XTT assay; assay type: functional
Candida albicans [24] = test: Antibiofilm activity against Candida albicans CPCC400616 assessed as sessile minimum inhibitory concentration measured after 24 hrs by XTT assay; assay type: functional
Candida parapsilosis = test: Antifungal activity against Candida parapsilosis by CLSI based broth microdilution method; assay type: functional; conditions: Lodderomyces parapsilosis
Candida albicans [25] = test: Antifungal activity against FCZ-resistant Candida albicans CaR by CLSI based broth microdilution method; assay type: functional
[Candida] zeylanoides = Antifungal activity against Candida zeylanoides by CLSI based broth microdilution method; assay type: functional; conditions: Dujonia zeylanoides
Candida albicans [26] = test: Antibiofilm activity against Candida albicans SC5314 assessed as sessile minimum inhibitory concentration measured after 6 hrs by XTT assay; assay type: functional
[27] = molecular target: T1, Lanosterol 14-alpha demethylase; test: Inhibition of CYP51 of Candida albicans ATCC SC5314 assessed as increase in eburicol level at 8 ug/ml incubated for 16 hrs by GC-MS analysis (reference value: 0 %); set-up: scale not given: the % may be the effect or the level left; conditions: at 8 µg/mL
[28] = molecular target: T1, Lanosterol 14-alpha demethylase; test: Inhibition of CYP51 of Candida albicans ATCC SC5314 assessed as increase in lanosterol level at 2 ug/ml incubated for 16 hrs by GC-MS analysis (reference value: 1.7 %); set-up: scale not given: the % may be the effect or the level left; conditions: at 2 µg/mL
[29] = molecular target: T1, Lanosterol 14-alpha demethylase; test: Inhibition of CYP51 of Candida albicans ATCC SC5314 assessed as decrease in ergosterol level by measuring residual activity at 1 ug/ml incubated for 16 hrs by GC-MS analysis (reference value: 98.3 %); conditions: at 1 µg/mL
Candida albicans [30] = test: Antibiofilm activity against Candida albicans SC5314 assessed as sessile minimum inhibitory concentration measured after 3 hrs by XTT assay; assay type: functional
Candida albicans [31] = test: Antibiofilm activity against Candida albicans CPCC400616 assessed as sessile minimum inhibitory concentration measured after 6 hrs by XTT assay; assay type: functional

## OC(Cn1cncn1)(Cn1cncn1)c1ccc(F)cc1F [FLUCONAZOLE]
Pichia kudriavzevii
  MIC: 32 µg/mL (≈ 104 µM)
Candida albicans [1]
  MIC50: > 1020 µg/mL
  MIC80: > 1020 µg/mL
[2]
  Activity: 14.3%
Candida albicans [3]
  MIC: > 64 µg/mL
Nakaseomyces glabratus
  MIC: 32 µg/mL (≈ 104 µM)
[4]
  Activity: 14.8%
Candida albicans [5]
  MIC: > 64 µg/mL
Aspergillus fumigatus
  MIC: > 64 µg/mL
[6]
  Activity: 2.5%
Candida albicans [7]
  MIC: 1 µg/mL (≈ 3.27 µM)
[8]
  Activity: 2.5%
[9]
  Activity: 68.7%
[10]
  Activity: 1.1%
Candida albicans [11]
  MIC: > 64 µg/mL
Candida albicans [12]
  MIC: > 64 µg/mL
Candida albicans [13]
  MIC50: > 1020 µg/mL
  MIC80: > 1020 µg/mL
[14]
  Activity: 67.3%
[15]
  Activity: 14.9%
Candida albicans [16]
  MIC50: > 1020 µg/mL
  MIC80: > 1020 µg/mL
[17]
  Activity: 69.6%
[18]
  Activity: 13.1%
[19]
  Activity: 13.9%
Candida albicans [20]
  MIC: 4 µg/mL (≈ 13.1 µM)
Cryptococcus neoformans
  MIC: 4 µg/mL (≈ 13.1 µM)
[21]
  Activity: 12.5%
[22]
  Activity: 15.4%
Candida albicans [23]
  MIC50: > 1020 µg/mL
  MIC80: > 1020 µg/mL
Candida albicans [24]
  MIC50: > 1020 µg/mL
  MIC80: > 1020 µg/mL
Candida parapsilosis
  MIC: 4 µg/mL (≈ 13.1 µM)
Candida albicans [25]
  MIC: > 64 µg/mL
[Candida] zeylanoides
  MIC: 2 µg/mL (≈ 6.53 µM)
Candida albicans [26]
  MIC50: > 1020 µg/mL
  MIC80: > 1020 µg/mL
[27]
  Activity: 69.9%
[28]
  Activity: 15.7%
[29]
  Activity: 3.9%
Candida albicans [30]
  MIC50: > 1020 µg/mL
  MIC80: > 1020 µg/mL
Candida albicans [31]
  MIC50: > 1020 µg/mL
  MIC80: > 1020 µg/mL
